Assay results as given in patent US7179823B1, “5-membered n-heterocyclic compounds with hypoglycemic and hypolipidemic activity” (Takeda Pharmaceutical Company Limited, priority 1999, dated 2007).

What was measured:
KKA^y mice [1] = assay: Hypoglycemic and hypolipidemic actions in mice; assay type: in vivo; conditions: Mus musculus, po, 96 h, four days; for inhibition in vivo at 0.005 %: 0.005% in powdery diet; for inhibition in vivo at 0.001 %: 0.001% in powdery diet
Excerpt: Hypoglycemic and Hypolipidemic Actions in Mice
Test compounds were mixed in a powdery diet (CE-2, Japan Clea) at the concentration of 0.01% (compounds of Examples 12, 30, 89, 186), 0.005% (compounds of Examples 7, 80, 82, 181, 182, 184, 256, 262, 283), 0.001% (compounds of Examples 9, 104, 110, 155, 156, 160, 167, 169, 172, 174, 176, 189), or 0.0003% (compounds of Examples 38, 40, 44), and freely given to KKA^y mice (9 to 12 weeks old, 5 mice in a group), a model of obese and type 2 diabetes mellitus, for four days. During this period, water was given freely. Blood was sampled from orbital venous plexus, and glucose and triglyceride levels in plasma separated from blood were determined enzymatically using L type Wako Glu2 (Wako Pure Chemical Industries, Ltd.) or L type Wako TG•H (Wako Pure Chemical Industries, Ltd.), respectively.
In the Table, the value of each treatment group is represented as percent reduction compared with the non-treatment group.

PPARγ-RXRα heterodimer = biological target: T1, PPARγ-RXRα heterodimer (Homo sapiens, UniProt P37231); assay: PPARγ-RXRα heterodimer ligand activity (luciferase reporter, PPARγ:RXRα:4ERPP/CHO-K1 cells); assay type: cell-based; conditions: 48 hours, concentration for 50% of the maximum fold induction
T1 construct: expressed in transfected cells; host or cells: CHO-K1
T1 sequence (P37231 1-477 isoform P37231-2): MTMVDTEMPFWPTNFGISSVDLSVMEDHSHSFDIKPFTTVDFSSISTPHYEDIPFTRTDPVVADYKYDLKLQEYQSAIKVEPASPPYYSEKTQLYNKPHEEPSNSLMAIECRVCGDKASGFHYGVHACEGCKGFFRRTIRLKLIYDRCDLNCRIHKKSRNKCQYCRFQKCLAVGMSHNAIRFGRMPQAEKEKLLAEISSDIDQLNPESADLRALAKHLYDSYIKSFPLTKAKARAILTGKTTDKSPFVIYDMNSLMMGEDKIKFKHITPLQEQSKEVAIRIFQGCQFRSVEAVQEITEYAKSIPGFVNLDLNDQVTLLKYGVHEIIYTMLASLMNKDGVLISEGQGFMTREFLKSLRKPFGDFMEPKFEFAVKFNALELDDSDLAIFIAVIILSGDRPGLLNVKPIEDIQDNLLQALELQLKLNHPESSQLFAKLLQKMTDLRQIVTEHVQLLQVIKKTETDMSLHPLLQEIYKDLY
T1 sequence (P19793 1-462 partner): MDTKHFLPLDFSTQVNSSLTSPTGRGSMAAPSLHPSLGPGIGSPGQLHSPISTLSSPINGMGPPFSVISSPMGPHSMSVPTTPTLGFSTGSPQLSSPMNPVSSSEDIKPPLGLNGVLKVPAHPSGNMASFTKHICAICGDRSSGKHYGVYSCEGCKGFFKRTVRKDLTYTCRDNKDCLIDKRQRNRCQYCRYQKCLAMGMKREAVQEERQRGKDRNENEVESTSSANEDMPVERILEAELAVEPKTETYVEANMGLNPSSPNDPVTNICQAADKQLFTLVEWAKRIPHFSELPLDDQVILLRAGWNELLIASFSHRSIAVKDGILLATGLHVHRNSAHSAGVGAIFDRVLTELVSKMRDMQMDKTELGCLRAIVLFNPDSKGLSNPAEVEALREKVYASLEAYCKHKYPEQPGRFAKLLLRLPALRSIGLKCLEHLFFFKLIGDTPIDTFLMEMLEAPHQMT
Procedure: (PPARγ-RXRα Heterodimer Ligand Activity)
A PPARγ:RXRα:4ERPP/CHO-K1 cells obtained in Reference Example 5 described later were cultured in HAM F12 medium (produced by NISSUI SEIYAKU) containing 10% Fetal bovine serum (produced by Life Technologies, Inc., USA) and then inoculated to a 96-well white plate (produced by Corning Costar Corporation, USA) at the density of 2×10^4 cells/well, and cultured in a CO2 gas incubator at 37° C. overnight.
After washing the 96 well white plate with PBS (Phosphate-buffered saline), 90 μl of HAM F12 medium containing 0.1% fatty acid-free bovine serum albumin (BSA) and 10 μl of test compound were added, which was cultured in a CO2 gas incubator at 37° C. for 48 hours. After removing the medium, 40 μl of PIKKAGENE 7.5 (produced by Wako Pure Chemical Industries, Ltd.) was added. After stirring, the luciferase activity was determined using Lumistar (produced by BMG Labtechnologies GmbH, Germany).
A fold induction was calculated based on the luciferase activity of each test compound by taking the luciferase activity in the non-treatment group as 1. The values of the test compound concentration and the fold induction were analyzed using PRISM 2.01 (produced by GraphPad Software Inc. USA) to calculate the EC50 values, the effective concentration of a test compound for 50% of the maximum fold induction.
(Introduction of Human PPARγ- and RXRα-Expressing Plasmid and Reporter Plasmid into CHO-K1 Cell and Establishment of Expressed Cell)
After a CHO-K1 cell cultured in a 750 ml tissue culture flask (produced by Corning Costar Corporation, USA) containing HAM F12 medium (produced by NISSUI SEIYAKU) supplemented with 10% Fetal Bovine Serum (produced by Life Technologies, Inc., USA) was scraped by treating with 0.5 g/L trypsin-0.2 g/L EDTA (ethylenediaminetetraacetic acid) (produced by Life Technologies, Inc., USA), the cell was washed with PBS (phosphate-buffered saline) (produced by Life Technologies, Inc., USA), centrifuged (1000 rpm, 5 minutes), and then suspended in PBS. Subsequently, a DNA was introduced into the cell under the condition shown below using GENE PULSER (produced by Bio-Rad Laboratories, USA).
Namely, to a cuvette having a 0.4 cm gap, added were 8×10^6 cells and 10 μg of plasmid pVgRXR2-hPPAR γ obtained in Reference Example 3 and 10 μg of reporter plasmid pGL3-4ERPP-TK neo obtained in Reference Example 4, which was subjected to electroporation at the voltage of 0.25 kV under the capacitance of 960 μF. Subsequently, the cell was transferred into a HAM F12 medium containing 10% Fetal Bovine Serum and cultured for 24 hours and then the cell was scraped again and centrifuged, and then suspended in HAM F12 medium containing 10% Fetal Bovine Serum supplemented with 500 μg/ml of GENETICIN (produced by Life Technologies, Inc., USA) and 250 μg/ml of ZEOCIN (produced by Invitrogen, USA) and diluted to the density of 10^4 cells/ml upon inoculation to a 96-well plate (produced by Corning Costar Corporation, USA), which was cultured in a CO2 gas incubator at 37° C., whereby obtaining a GENETICIN- and ZEOCIN-resistant transformant.
Subsequently, after the transformant cell line thus obtained was cultured in a 24-well plate (produced by Corning Costar Corporation, USA), selected was a cell line in which the luciferase was expressed and induced, i.e., PPARγ:RXRα:4ERPP/CHO-K1 cell by addition of 10 μM pioglitazone hydrochloride.

KKA^y mice [2] = assay: Total cholesterol lowering action and plasma anti-arteriosclerosis index-enhancing action in mice; assay type: in vivo; conditions: Mus musculus, po, 96 h, four days, non-treatment group taken as 100%; for change in vivo at 0.005 % / inhibition in vivo at 0.005 %: 0.005% in powdery diet
Excerpt: Total Cholesterol Lowering Action and Plasma Anti-Arteriosclerosis Index-Enhancing Action in Mice
Test compounds were mixed in a powdery diet (CE-2, Japan Clea) at the concentration of 0.01% (compounds of Examples 12, 30, 89), 0.005% (compounds of Examples 38, 40, 44, 181, 184, 262, 283), or 0.001% (compounds of Examples 9, 156, 167, 172, 174, 176, 189), and freely given to KKA^y mice (9 to 12 weeks old, 5 mice per group), a model of obese and type 2 diabetes mellitus, for four days. During this period, water was given freely. Blood was sampled from orbital venous plexus and plasma was separated. Total cholesterol levels were determined by using L type Wako Cholesterol (Wako Pure Chemical Industries, Ltd.). Precipitation reagent for apoB containing lipoprotein was added to a part of the plasma to precipitate non-HDL lipoprotein, and cholesterol (HDL cholesterol) in the resulting supernatant was determined. The plasma anti-arteriosclerosis index [(HDL cholesterol/total cholesterol)×100] was calculated by using these cholesterol levels.
In the Table, “Total cholesterol lowering action (%)” represents the percent reduction (%) of total cholesterol level in the treatment group, when the total cholesterol level in the non-treatment group is taken as 100%. “Plasma anti-arteriosclerosis index-enhancing action (%)” represents the percent increase (%) of plasma anti-arteriosclerosis index in the treatment group, when the plasma anti-arteriosclerosis index in the non-treatment group is taken as 100%.

[3] = percent reduction of plasma glucose compared with the non-treatment group, read-out: Hypoglycemic action (%)
[4] = percent reduction of plasma triglyceride compared with the non-treatment group, read-out: Hypolipidemic action (%)
[5] = percent increase of [(HDL cholesterol/total cholesterol)×100], read-out: Plasma anti-arteriosclerosis index-enchancing action (%)
[6] = percent reduction of plasma total cholesterol

EC50 (PPARγ-RXRα heterodimer) | melting point | SMILES | inhibition in vivo at 0.005 % (KKA^y mice [1]; [3]) | inhibition in vivo at 0.005 % (KKA^y mice [1]; [4]) | other results
3.8 nM | 124 to 125 °C | Cc1oc(-c2ccccc2)nc1COc1ccc(Cn2cc(CCC(=O)O)c(-c3ccccc3)c2)cc1 [Example 7, 3-[1-[4-(5-methyl-2-phenyl-4-oxazolylmethoxy)benzyl]-4-phenyl-3-pyrrolyl]propionic acid] | 54% | 60% | –
2.7 nM | 86 to 87 °C | Cc1oc(-c2ccco2)nc1COc1ccc(Cn2cc(CCC(=O)O)c(-c3ccccc3)c2)cc1 [Example 8, 3-[1-[4-[2-(2-furyl)-5-methyl-4-oxazolylmethoxy]benzyl]-4-phenyl-3-pyrrolyl]propionic acid] | – | – | –
2.5 nM | 152 to 153 °C | Cc1oc(-c2ccco2)nc1COc1ccc(Cn2cc(CCC(=O)O)c(-c3ccccc3)n2)cc1 [Example 80, 3-[1-[4-[2-(2-furyl)-5-methyl-4-oxazolylmethoxy]benzyl]-3-phenyl-1H-pyrazol-4-yl]propionic acid] | 42% | 22% | –
1.4 nM | 159 to 160 °C | Cc1oc(-c2cccs2)nc1COc1ccc(Cn2cc(CCC(=O)O)c(-c3ccccc3)n2)cc1 [Example 82, 3-[1-[4-[5-methyl-2-(2-thienyl)-4-oxazolylmethoxy]benzyl]-3-phenyl-1H-pyrazol-4-yl]propionic acid] | 50% | 58% | –
1.8 nM | 139 to 140 °C | Cc1oc(-c2ccccc2)nc1COc1ccc(Cn2cc(CCC(=O)O)c(-c3ccc(F)cc3)n2)cc1 [Example 100, 3-[3-(4-fluorophenyl)-1-[4-(5-methyl-2-phenyl-4-oxazolylmethoxy)benzyl]-1H-pyrazol-4-yl]propionic acid] | – | – | –
2 nM | – | CCOC(=O)CCc1cn(Cc2ccc(OCc3nc(-c4ccco4)oc3C)cc2)nc1-c1ccc(F)cc1 [Example 104, ethyl 3-[3-(4-fluorophenyl)-1-[4-[2-(2-furyl)-5-methyl-4-oxazolylmethoxy]benzyl]-1H-pyrazol-4-yl]propionate] | – | – | inhibition in vivo at 0.001 % (KKA^y mice [1]; [3]): 43%; inhibition in vivo at 0.001 % (KKA^y mice [1]; [4]): 42%
– | – | CCOc1nn(Cc2ccc(OCc3csc(-c4ccccc4)n3)cc2)cc1CCC(=O)O [Example 181, 3-[3-ethoxy-1-[4-(2-phenyl-4-thiazolylmethoxy)benzyl]-1H-pyrazol-4-yl]propionic acid] | 56% | 63% | change in vivo at 0.005 % (KKA^y mice [2]; [5]): 21%; inhibition in vivo at 0.005 % (KKA^y mice [2]; [6]): 25%
– | – | CCOc1nn(Cc2ccc(OCc3nc(-c4ccccc4)oc3C)nc2)cc1CCC(=O)O [Example 184, 3-[3-ethoxy-1-[2-(5-methyl-2-phenyl-4-oxazolylmethoxy)-5-pyridylmethyl]-1H-pyrazol-4-yl]propionic acid] | 56% | 82% | change in vivo at 0.005 % (KKA^y mice [2]; [5]): 17%; inhibition in vivo at 0.005 % (KKA^y mice [2]; [6]): 27%
– | – | CCOc1nn(Cc2ccc(OCc3nc(-c4cccs4)oc3C)cc2)cc1CCC(=O)O [Example 189, 3-[3-ethoxy-1-[4-[5-methyl-2-(2-thienyl)-4-oxazolylmethoxy]benzyl]-1H-pyrazol-4-yl]propionic acid] | – | – | inhibition in vivo at 0.001 % (KKA^y mice [1]; [3]): 44%; inhibition in vivo at 0.001 % (KKA^y mice [1]; [4]): 75%; change in vivo at 0.001 % (KKA^y mice [2]; 0.001% in powdery diet, percent increase of [(HDL cholesterol/total cholesterol)×100], read-out: Plasma anti-arteriosclerosis index-enchancing action (%)): 20%; inhibition in vivo at 0.001 % (KKA^y mice [2]; 0.001% in powdery diet, percent reduction of plasma total cholesterol): 21%
